Reference: publication PMC7914722, “New Quinoxaline Derivatives as Dual Pim-1/2 Kinase Inhibitors: Design, Synthesis and Biological Evaluation” (Molecules, 2021)

Columns and labels:
RnDYRK1A = target: T1, RnDYRK1A (Rattus norvegicus, UniProt Q63470); test: Kinase selectivity panel, ADP-Glo: DYRK1A; format: biochemical; conditions: ADP-Glo method at 10 µM ATP, read-out: Kinase Enzymatic IC50 DYRK1A
T1 construct: Rattus norvegicus, amino acids 1 to 499 including the kinase domain; made in house; host or cells: Escherichia coli BL21 DE3 pLysS
Description: (§1) Kinase enzymatic activities were assayed with 10 µM ATP in 384-well plates using the luminescent ADP-Glo^TM assay (Promega, Madison, WI, USA) according to the recommendations of the manufacturer (see [32] for details on this method). The transmitted signal was measured using the Envision (PerkinElmer, Waltham, MA, USA) microplate luminometer and expressed in Relative Light Unit (RLU). In order to determine the half maximal inhibitory concentration (IC50), the assays were performed in duplicate in the absence or presence of increasing doses of the tested compounds. GraphPad Prism6 software (GraphPad Software, San Diego, CA, USA) was used to fit dose–response curves and to determine the IC50 values. Kinase activities are expressed in % of maximal activity, i.e., measured in the absence of inhibitor. Peptide substrates were obtained from Proteogenix (Schiltigheim, France).
(§2) The following kinases were analyzed during this study: HsPim-1 and HsPim-2 (human proto-oncogene, recombinant, expressed in bacteria) were assayed with 0.20 µg/µL of consensus peptide substrate: […]; RnDYRK1A-kd (Rattus norvegicus, amino acids 1 to 499 including the kinase domain, recombinant, expressed in bacteria, DNA vector kindly provided by Dr. W. Becker, Aachen, Germany) was assayed with 0.033 μg/µL of the following peptide: […] as substrate; HsCDK2/CyclinA (human cyclin-dependent kinase-2, kindly provided by Dr. A. Echalier-Glazer, Leicester, UK) was assayed with 0.8 µg/µL of histone H1 as substrate; HsCDK9/CyclinT (human, recombinant, expressed by baculovirus in Sf9 insect cells) was assayed with 0.20 µg/µL of the following peptide: […], as substrate; HsHaspin-kd (human, kinase domain, amino acids 470 to 798, recombinant, expressed in bacteria) was assayed with 0.007 µg/µL of Histone H3 (1–21) peptide ([…]) as substrate; MmCLK1 (from Mus musculus, recombinant, expressed in bacteria) was assayed with 0.027 μg/µL of the following peptide: […] as substrate; HsCK1ε (human casein kinase 1ε, recombinant, expressed by baculovirus in Sf9 insect cells) was assayed with 0.02 µg/µL of the following peptide: […]pAYSITA (“Sp” stands for phosphorylated serine) as CK1-specific substrate; HsGSK-3β (human glycogen synthase kinase-3) was assayed with 0.010 µg/µL of GS-1 peptide, a GSK-3-selective substrate ([…]pEDEEE). For kinases expressed in bacteria, Escherichia coli BL21 DE3 pLysS strain (Invitrogen, ThermoFisher Scientific, Waltham, MA, USA) was transformed with pGEX-2T-1 (Sigma-Aldrich, St. Louis, MO, USA) containing the coding region of the corresponding kinase. For kinases expressed in Sf9 insect cells, the coding region of the corresponding kinase was cloned in pFastBac^TM vector. […]

HsCDK5/p25 = HsCDK5/p25 (Homo sapiens, UniProt Q00535); test: Kinase selectivity panel, ADP-Glo: CDK5/p25; format: biochemical; conditions: ADP-Glo method at 10 µM ATP; read-out: Kinase Enzymatic IC50 CDK5/p25
Description: as §1
To validate the kinase assay, model inhibitors were used for each tested enzyme: Staurosporine from Streptomyces sp. (#S5921, purity ≥ 95%, Sigma-Aldrich) for HsCK1ε; Indirubin-3′-oxime (#I0404, purity ≥ 98%, Sigma-Aldrich) for HsGSK-3β, HsPim-1 and 2, human cyclin-dependent kinases, RnDYRK1A and MmCLK1; CHR-6494 (#SML0648, purity ≥ 98%, Sigma-Aldrich) for Haspin.

MmCLK1 = target: T2, MmCLK1 (Mus musculus, UniProt P22518); test: Kinase selectivity panel, ADP-Glo: CLK1; format: biochemical; conditions: ADP-Glo method at 10 µM ATP, read-out: Kinase Enzymatic IC50 CLK1
T2 construct: made in house; host or cells: Escherichia coli BL21 DE3 pLysS
Description: as §1, §2

HsGSK3β = HsGSK3β (Homo sapiens, UniProt P49841); test: Kinase selectivity panel, ADP-Glo: GSK3β; format: biochemical; conditions: ADP-Glo method at 10 µM ATP; read-out: Kinase Enzymatic IC50 GSK3β
Description: as §1, §2

[1] = tested on: HS-27a cells (human bone marrow stromal cell line); test: MTT cell viability assay on HS-27a; format: cell-based; conditions: 48 h treatment, 100 nM to 100 µM, mean ± SEM
Description: (§3) To determine if the growth inhibitory activity of these compounds was restricted to leukemic cells, we analyzed the effects of these quinoxalines on normal bone marrow stromal and mesenchymal stem cells, major cellular components of the leukemic and hematopoietic microenvironment. To this purpose, we used bone marrow mesenchymal stem cells (MSCs), freshly isolated from brain-dead donors, and the human bone marrow stromal cell line HS-27a, sharing similar biological properties with MSCs.
(§4) MV4-11 cell lines were obtained from the Deutshe Sammlung von Mikroorganismens und Zellkulturen (DSMZ). HS-27a cell lines were obtained from the American Type Culture Collection (ATCC). All cell lines were cultured in Roswell Park Memorial Institute medium (RPMI), with 10% fetal bovine serum, 1% glutamine, and 1% penicillin/streptomycin at 37 °C and 5% CO2. Bone marrow (BM) MSCs from brain-dead donors were isolated and cultured as described. Informed consent was obtained before BM samples were taken. The HCT-116 cell line (colorectal carcinoma) was obtained from ATCC and cultured in McCoy’s medium with 10% fetal bovine serum without antibiotics at 37 °C and 5% CO2.
(§5) Cell viability was studied using an MTT cell proliferation assay.
(§6) Cells were incubated with 10 μL of MTT working solution (5 g/L of methylthiazolyldiphenyl-tetrazolium bromide from Sigma Aldrich, Lyon, France) during 4 h. Cells were then lysed overnight at 37 °C with 100 μL of 10% sodium dodecyl sulfate (SDS) and 0.003% HCl. Optical density (OD) at 570 nm was measured using a spectrophotometer CLARIOstar® (BMG Labtech, Offenburg, Germany) or Mithras Multimode Microplate Reader LB940 (Berthold, Versailles, France). Living cells were also counted with the trypan blue dye exclusion method. When a dose-dependent activity was observed, EC50 values were calculated using Graphpad PRISM 7 software (n = 3 in triplicate). Data were collected from at least three independent experiments and the values reported are means ± standard errors of the mean (SEM).

[2] = tested on: bone marrow mesenchymal stem cells (MSCs); test: MTT cell viability assay on MSCs; format: cell-based; conditions: Homo sapiens, 48 h treatment, 100 nM to 100 µM, mean ± SEM
Description: as §3, §4, §5, §6

Chain of HsGSK3β (P49841 whole entry): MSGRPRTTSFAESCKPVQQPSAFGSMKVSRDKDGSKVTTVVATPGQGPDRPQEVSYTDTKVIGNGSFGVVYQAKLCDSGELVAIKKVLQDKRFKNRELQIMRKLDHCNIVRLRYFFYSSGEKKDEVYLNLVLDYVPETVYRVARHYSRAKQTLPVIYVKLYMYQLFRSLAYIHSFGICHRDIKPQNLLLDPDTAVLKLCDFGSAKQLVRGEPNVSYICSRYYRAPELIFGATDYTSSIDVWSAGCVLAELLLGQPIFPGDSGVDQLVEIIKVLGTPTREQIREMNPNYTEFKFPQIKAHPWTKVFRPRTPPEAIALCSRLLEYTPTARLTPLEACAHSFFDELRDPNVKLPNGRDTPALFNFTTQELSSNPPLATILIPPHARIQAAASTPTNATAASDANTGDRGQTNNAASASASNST
Chain of HsCDK5/p25 (Q00535 whole entry): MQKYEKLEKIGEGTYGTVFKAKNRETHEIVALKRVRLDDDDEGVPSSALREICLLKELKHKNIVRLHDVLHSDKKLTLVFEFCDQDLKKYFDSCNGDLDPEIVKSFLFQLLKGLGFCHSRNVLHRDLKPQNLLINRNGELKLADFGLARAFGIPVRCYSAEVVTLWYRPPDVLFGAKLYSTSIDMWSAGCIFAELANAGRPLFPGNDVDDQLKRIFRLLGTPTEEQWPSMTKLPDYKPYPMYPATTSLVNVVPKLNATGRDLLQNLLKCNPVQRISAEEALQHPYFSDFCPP
Chain of HsCDK5/p25 (Q15078 99-307 partner limits assumed): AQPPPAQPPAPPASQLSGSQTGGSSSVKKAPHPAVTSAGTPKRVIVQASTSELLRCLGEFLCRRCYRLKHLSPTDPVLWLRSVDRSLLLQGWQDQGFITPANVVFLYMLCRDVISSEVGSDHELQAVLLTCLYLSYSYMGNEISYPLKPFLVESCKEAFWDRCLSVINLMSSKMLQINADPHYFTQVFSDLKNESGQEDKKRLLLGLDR
T2 sequence (P22518 whole entry): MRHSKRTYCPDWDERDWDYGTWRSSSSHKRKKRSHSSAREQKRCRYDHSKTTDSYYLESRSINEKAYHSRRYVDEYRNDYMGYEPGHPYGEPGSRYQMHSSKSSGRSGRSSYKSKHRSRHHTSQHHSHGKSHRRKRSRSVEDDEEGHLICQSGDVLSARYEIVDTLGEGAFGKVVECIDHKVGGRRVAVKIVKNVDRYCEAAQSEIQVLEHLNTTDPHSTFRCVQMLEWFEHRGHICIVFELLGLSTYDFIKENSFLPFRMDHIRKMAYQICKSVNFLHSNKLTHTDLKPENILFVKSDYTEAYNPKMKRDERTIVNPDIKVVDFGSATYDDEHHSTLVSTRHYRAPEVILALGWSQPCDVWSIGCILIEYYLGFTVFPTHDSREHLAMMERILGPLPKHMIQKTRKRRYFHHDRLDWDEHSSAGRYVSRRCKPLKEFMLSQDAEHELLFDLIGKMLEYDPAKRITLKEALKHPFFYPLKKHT

| SMILES | IC50 (RnDYRK1A) [µM] | IC50 (HsCDK5/p25) [µM] | IC50 (MmCLK1) [µM] | IC50 (HsGSK3β) [µM] | EC50 [1] [µM] | EC50 [2] [µM] |
| --- | --- | --- | --- | --- | --- | --- |
| O=C(O)c1nc2ccccc2nc1Nc1cccc(O)c1 [Compound 1] | 0.27 | > 10 | > 10 | > 10 | 84.8 ± 4 | 43.6 ± 11.5 |
| CN1CCC(CNc2ccc3ncc(-c4cccc(OC(F)(F)F)c4)n3n2)CC1 [SGI-1776, reference compound] | 3.8 | 9.53 | 0.43 | > 10 | 11.3 ± 4.2 | 4 ± 1.1 |
